Legend:
PARG in HeLa cell line = PARG in HeLa cell line (Homo sapiens (Human), UniProt Q86W56); assay: PARG cell assay (nuclear PAR chains after MMS, immunofluorescence); type: cell-based; settings: HeLa cells, MMS 50 μg/mL; read-out: PARG Cell IC50 Geomean
In short: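 HeLa cells pre-dosed 1 h with compound (10-point dose response), then MMS 50 μg/mL for a further hour at 37 °C. Fixed cells immunostained with anti-PAR antibody plus Alexa Fluor 488 secondary and Hoechst. High-content imaging quantified nuclear PAR fluorescence intensity; inhibition maintains PAR chains.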

Human Full Length PARG = Human Full Length PARG (Homo sapiens (Human), UniProt Q86W56); assay: PARG in vitro enzyme assay (TR-FRET); type: biochemical; settings: read-out: PARG_EC50_ENZYME
In short: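 Full-length human PARG ([…]) incubated with ribosylated PARP substrate (4.5 nM) for 10 min at room temperature in Tris pH 7.4 buffer with EDTA, EGTA, DTT, KCl. Detection by TR-FRET using anti-6HIS XL665 (14 nM final) and streptavidin europium cryptate (0.75 nM final) after 60 min; Em665/Em620 ratio converted to percent inhibition.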

Human Full Length PARG, sequence (Q86W56 whole entry): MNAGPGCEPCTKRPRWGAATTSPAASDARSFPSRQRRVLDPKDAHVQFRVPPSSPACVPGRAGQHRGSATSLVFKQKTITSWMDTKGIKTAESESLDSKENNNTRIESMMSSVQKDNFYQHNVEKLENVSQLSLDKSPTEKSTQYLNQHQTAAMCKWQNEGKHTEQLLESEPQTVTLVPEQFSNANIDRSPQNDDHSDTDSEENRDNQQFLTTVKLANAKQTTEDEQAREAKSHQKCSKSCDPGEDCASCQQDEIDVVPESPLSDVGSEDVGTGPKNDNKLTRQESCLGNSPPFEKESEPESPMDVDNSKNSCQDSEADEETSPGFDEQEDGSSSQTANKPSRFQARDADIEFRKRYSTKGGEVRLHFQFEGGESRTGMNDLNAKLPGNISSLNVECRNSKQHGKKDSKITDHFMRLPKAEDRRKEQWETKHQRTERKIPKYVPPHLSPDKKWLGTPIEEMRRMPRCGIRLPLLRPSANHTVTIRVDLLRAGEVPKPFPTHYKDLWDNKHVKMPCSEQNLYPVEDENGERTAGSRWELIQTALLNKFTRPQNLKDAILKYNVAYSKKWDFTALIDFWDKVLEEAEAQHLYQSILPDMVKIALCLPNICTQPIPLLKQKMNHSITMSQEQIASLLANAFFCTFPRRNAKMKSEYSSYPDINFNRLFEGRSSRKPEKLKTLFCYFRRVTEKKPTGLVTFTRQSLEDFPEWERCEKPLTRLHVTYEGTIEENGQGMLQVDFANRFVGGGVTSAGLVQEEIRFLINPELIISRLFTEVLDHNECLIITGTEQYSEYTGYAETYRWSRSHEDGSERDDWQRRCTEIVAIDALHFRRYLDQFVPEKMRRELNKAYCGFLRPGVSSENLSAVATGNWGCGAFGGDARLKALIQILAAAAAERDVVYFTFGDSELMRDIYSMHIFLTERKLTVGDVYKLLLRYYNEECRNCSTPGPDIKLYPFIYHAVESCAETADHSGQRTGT
PARG in HeLa cell line, sequence (Q86W56 whole entry): as above

IC50 (PARG in HeLa cell line) [µM]	EC50 (Human Full Length PARG) [µM]	Compound
0.376	0.549	COCCn1c(=O)n(-c2ncns2)c2cc(S(=O)(=O)NC3(CF)CC3)ccc21 [Example 183, N-[1-(Fluoromethyl)cyclopropyl]-1-(2-methoxyethyl)-2-oxo-3-(1,2,4-thiadiazol-5-yl)benzimidazole-5-sulfonamide]
3.12	4.23	Cc1nsc(-n2c(=O)n(CCN(C)C)c3ccc(S(=O)(=O)NC4(CF)CC4)cc32)n1 [Example 186, 1-[2-(Dimethylamino)ethyl]-N-[1-(fluoromethyl)cyclopropyl]-3-(3-methyl-1,2,4-thiadiazol-5-yl)-2-oxo-benzimidazole-5-sulfonamide]
0.347	0.61	Cc1nnc(-n2c(=O)n(CCN(C)C)c3ccc(S(=O)(=O)NC4(CF)CC4)cc32)s1 [Example 188, 1-[2-(Dimethylamino)ethyl]-N-[1-(fluoromethyl)cyclopropyl]-3-(5-methyl-1,3,4-thiadiazol-2-yl)-2-oxo-benzimidazole-5-sulfonamide]
0.807	0.967	Cc1nnc(-n2c(=O)n(CCF)c3ccc(S(=O)(=O)NC4(C)CC4)cc32)o1 [Example 191, 1-(2-Fluoroethyl)-N-(1-methylcyclopropyl)-3-(5-methyl-1,3,4-oxadiazol-2-yl)-2-oxo-benzimidazole-5-sulfonamide]
11.7	1.46	Cc1nnc(-n2c(=O)[nH]c3cc(F)c(S(=O)(=O)NC4(C)CC4)cc32)o1 [Example 192, 6-Fluoro-N-(1-methylcyclopropyl)-3-(5-methyl-1,3,4-oxadiazol-2-yl)-2-oxo-1H-benzimidazole-5-sulfonamide]
> 30	1.24	Cc1nnc(-n2c(=O)[nH]c3cc(F)c(S(=O)(=O)NC4(CF)CC4)cc32)o1 [Example 194, 6-Fluoro-N-[1-(fluoromethyl)cyclopropyl]-3-(5-methyl-1,3,4-oxadiazol-2-yl)-2-oxo-1H-benzimidazole-5-sulfonamide]
0.24	0.421	CCn1c(=O)n(-c2nnc(C(F)F)o2)c2cc(S(=O)(=O)NC3(CF)CC3)ccc21 [Example 202, 3-[5-(Difluoromethyl)-1,3,4-oxadiazol-2-yl]-1-ethyl-N-[1-(fluoromethyl)cyclopropyl]-2-oxo-benzimidazole-5-sulfonamide]
3.7	4.83	COCCn1c(=O)n(-c2ccc(C)nn2)c2cc(S(=O)(=O)NC3(CF)CC3)c(F)cc21 [Example 203, 6-Fluoro-N-[1-(fluoromethyl)cyclopropyl]-1-(2-methoxyethyl)-3-(6-methylpyridazin-3-yl)-2-oxo-benzimidazole-5-sulfonamide]

The next lines start with the compound.

Compound	IC50 (PARG in HeLa cell line) [µM]	EC50 (Human Full Length PARG) [µM]
COCCn1c(=O)n(-c2nc(C)ns2)c2cc(S(=O)(=O)NC3(CF)CC3)ccc21 [Example 184, N-[1-(Fluoromethyl)cyclopropyl]-1-(2-methoxyethyl)-3-(3-methyl-1,2,4-thiadiazol-5-yl)-2-oxo-benzimidazole-5-sulfonamide]	0.701	1.39
COCCCn1c(=O)n(-c2nc(C)ns2)c2cc(S(=O)(=O)NC3(CF)CC3)ccc21 [Example 185, N-[1-(Fluoromethyl)cyclopropyl]-1-(3-methoxypropyl)-3-(3-methyl-1,2,4-thiadiazol-5-yl)-2-oxo-benzimidazole-5-sulfonamide]	0.74	3.78
COCCCn1c(=O)n(-c2nnc(C)s2)c2cc(S(=O)(=O)NC3(CF)CC3)ccc21 [Example 187, N-[1-(Fluoromethyl)cyclopropyl]-1-(3-methoxypropyl)-3-(5-methyl-1,3,4-thiadiazol-2-yl)-2-oxo-benzimidazole-5-sulfonamide]	0.201	0.427
Cc1nnc(-n2c(=O)n(C)c3ccc(S(=O)(=O)NC4(C)CC4)cc32)o1 [Example 189, 1-Methyl-N-(1-methylcyclopropyl)-3-(5-methyl-1,3,4-oxadiazol-2-yl)-2-oxo-benzimidazole-5-sulfonamide]	1.23	1.79
CCn1c(=O)n(-c2nnc(C)o2)c2cc(S(=O)(=O)NC3(C)CC3)ccc21 [Example 190, 1-Ethyl-N-(1-methylcyclopropyl)-3-(5-methyl-1,3,4-oxadiazol-2-yl)-2-oxo-benzimidazole-5-sulfonamide]	0.404	0.934
C#CCn1c(=O)n(-c2nnc(C(F)F)s2)c2cc(S(=O)(=O)NC3(CF)CC3)ccc21 [Example 193, 3-[5-(Difluoromethyl)-1,3,4-thiadiazol-2-yl]-N-[1-(fluoromethyl)cyclopropyl]-2-oxo-1-prop-2-ynyl-benzimidazole-5-sulfonamide]	0.04	0.153
Cn1c(=O)n(-c2nnc(C(F)F)o2)c2cc(S(=O)(=O)NC3(C)CC3)ccc21 [Example 195, 3-[5-(Difluoromethyl)-1,3,4-oxadiazol-2-yl]-1-methyl-N-(1-methylcyclopropyl)-2-oxo-benzimidazole-5-sulfonamide]	0.457	1.01
Cn1c(=O)n(-c2nnc(C(F)F)o2)c2cc(S(=O)(=O)NC3(CF)CC3)ccc21 [Example 196, 3-[5-(Difluoromethyl)-1,3,4-oxadiazol-2-yl]-N-[1-(fluoromethyl)cyclopropyl]-1-methyl-2-oxo-benzimidazole-5-sulfonamide]	0.469	0.789
Cc1nnc(-n2c(=O)n(C)c3cc(F)c(S(=O)(=O)NC4(C)CC4)cc32)o1 [Example 197, 6-Fluoro-1-methyl-N-(1-methylcyclopropyl)-3-(5-methyl-1,3,4-oxadiazol-2-yl)-2-oxo-benzimidazole-5-sulfonamide]	0.538	0.759
Cc1nnc(-n2c(=O)n(CCF)c3cc(F)c(S(=O)(=O)NC4(C)CC4)cc32)o1 [Example 198, 6-Fluoro-1-(2-fluoroethyl)-N-(1-methylcyclopropyl)-3-(5-methyl-1,3,4-oxadiazol-2-yl)-2-oxo-benzimidazole-5-sulfonamide]	0.297	0.419
CCn1c(=O)n(-c2nnc(C(F)F)o2)c2cc(S(=O)(=O)NC3(C)CC3)c(F)cc21 [Example 199, 3-[5-(Difluoromethyl)-1,3,4-oxadiazol-2-yl]-1-ethyl-6-fluoro-N-(1-methylcyclopropyl)-2-oxo-benzimidazole-5-sulfonamide]	0.145	0.314
CCn1c(=O)n(-c2nnc(C(F)F)o2)c2cc(S(=O)(=O)NC3(C)CC3)ccc21 [Example 201, 3-[5-(Difluoromethyl)-1,3,4-oxadiazol-2-yl]-1-ethyl-N-(1-methylcyclopropyl)-2-oxo-benzimidazole-5-sulfonamide]	0.189	0.759
Cc1ccc(-n2c(=O)n(C)c3cc(F)c(S(=O)(=O)NC4(CF)CC4)cc32)nn1 [Example 204, 6-Fluoro-N-[1-(fluoromethyl)cyclopropyl]-1-methyl-3-(6-methylpyridazin-3-yl)-2-oxo-benzimidazole-5-sulfonamide]	4.23	6.19
Cc1ccc(-n2c(=O)n(C)c3cc(F)c(S(=O)(=O)NC4(C)CC4)cc32)nn1 [Example 205, 6-Fluoro-1-methyl-N-(1-methylcyclopropyl)-3-(6-methylpyridazin-3-yl)-2-oxo-benzimidazole-5-sulfonamide]	5.76	6.69
